Consider 21 compounds from PubChem BioAssay AID330 (DTP/NCI, 2004).

Where “and” joins values, the source holds several entries; their conditions need not be identical. Identical values can stand only once. Inconclusive results and toxic doses are left out.

The test system of the test is P388 leukemia ip, CD2F1 mice, survival T/C. The test is described as follows: NCI In Vivo Anticancer Drug Screen. Data for tumor model P388 Leukemia (intraperitoneal) in CD2F1 (CDF1) mice. To be noted: endpoint: median survival time, higher = longer survival. The essentials:
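Mice carrying the transplanted tumor received test compound or vehicle. Survival was recorded in each group, and the value is the treated-group measurement divided by that of the vehicle-treated control group.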

Where [1] appears, read: dose: 100.0 mg/kg/injection, schedule: Q04DX002 (ip), vehicle: saline with Tween-80.
Setting [2] is: dose: 50.0 mg/kg/injection, schedule: Q01DX005 (ip), vehicle: Klucel (hydroxypropylcellulose) (HPC).
The mark [3] stands for this setting: dose: 100.0 mg/kg/injection, schedule: Q01DX005 (ip), vehicle: Klucel (hydroxypropylcellulose) (HPC).
The mark [4] stands for this setting: dose: 200.0 mg/kg/injection, schedule: Q01DX005 (ip), vehicle: Klucel (hydroxypropylcellulose) (HPC).
Where [5] appears, read: dose: 60.0 mg/kg/injection, schedule: Q01DX005 (ip), vehicle: saline with Tween-80.
Where [6] appears, read: dose: 120.0 mg/kg/injection, schedule: Q01DX005 (ip), vehicle: saline with Tween-80.
The mark [7] stands for this setting: dose: 240.0 mg/kg/injection, schedule: Q01DX005 (ip), vehicle: saline with Tween-80.

Consider `O=C1NC2CCCC1C(c1ccccc1)NC2c1ccccc1` (stereo unspecified), for which the T/C is 98 % of control (dose: 100.0 mg/kg/injection, schedule: Q04DX003 (ip), vehicle: suspension in saline); 99 % of control (dose: 200.0 mg/kg/injection, schedule: Q04DX003 (ip), vehicle: suspension in saline); 100 % of control (dose: 400.0 mg/kg/injection, schedule: Q04DX003 (ip), vehicle: suspension in saline).
As to `O=[N+]([O-])O.[Mn].c1ccc(/C2=c3\cc/c([n-]3)=C(\c3ccccc3)c3ccc([n-]3)/C(c3ccccc3)=c3/cc/c([n-]3)=C(\c3ccccc3)c3ccc2[n-]3)cc1`, the T/C is 100 % of control (dose: 25.0 mg/kg/injection, schedule: Q04DX002 (ip), vehicle: saline with Tween-80); 94 % of control (dose: 50.0 mg/kg/injection, schedule: Q04DX002 (ip), vehicle: saline with Tween-80); 108 % of control (dose: 100.0 mg/kg/injection, schedule: Q04DX002 (ip), vehicle: Klucel (hydroxypropylcellulose) (HPC)); 94 % of control under setting [1]; 108 % of control (dose: 400.0 mg/kg/injection, schedule: Q04DX002 (ip), vehicle: Klucel (hydroxypropylcellulose) (HPC)).
`Cn1ncc(=O)[nH]c1=O`: the T/C is 103 % of control under setting [2], 98 % of control under setting [3] and 103 % of control under setting [4].
On to `CC(C)(C)N1OC2(c3ccccc3)OC3N(C(C)(C)C)OC4(c5ccccc5)OC1C2(c1ccccc1)C34c1ccccc1` (stereo unspecified), for which the T/C is 111 % of control under setting [5], 87 % of control under setting [6] and 86 % of control under setting [7].
In the case of `COc1ccc2c(c1OC)C(=O)OC2C1c2cc3c(cc2CC[N+]1(C)C)OCO3` (stereo unspecified), the T/C (dose: 12.5 mg/kg/injection, schedule: Q01DX001 (ip), vehicle: Klucel (hydroxypropylcellulose) (HPC)) is 88 % of control; the T/C (dose: 25.0 mg/kg/injection, schedule: Q01DX001 (ip), vehicle: Klucel (hydroxypropylcellulose) (HPC)) was 92 % of control; the T/C (dose: 50.0 mg/kg/injection, schedule: Q01DX001 (ip), vehicle: Klucel (hydroxypropylcellulose) (HPC)) is 87 % of control.
With `c1ccc(CC(Nc2cccnc2)c2ccccc2)cc1` (stereo unspecified), the T/C by setting is: (dose: 60.0 mg/kg/injection, schedule: Q01DX005 (ip), vehicle: Klucel (hydroxypropylcellulose) (HPC)) 98 % of control; (dose: 120.0 mg/kg/injection, schedule: Q01DX005 (ip), vehicle: Klucel (hydroxypropylcellulose) (HPC)) 104 % of control; (dose: 240.0 mg/kg/injection, schedule: Q01DX005 (ip), vehicle: Klucel (hydroxypropylcellulose) (HPC)) 101 % of control.
Take `NCCCn1[nH]c(=O)c2cccnc2c1=O`: the T/C by setting is: under setting [5], 101 % of control; under setting [6], 100 % of control; under setting [7], 95 % of control.
Regarding `Cc1ccc(S(=O)(=O)NC(=O)N2CCc3ccccc32)cc1`, the T/C is 105 % of control under setting [2], 105 % of control under setting [3] and 93 % of control under setting [4].
With `CCc1nc(N)nc(N)c1-c1ccc(N=[N+]=[N-])c(Cl)c1`, the T/C reads like this: under setting [1], 160 % of control; (dose: 200.0 mg/kg/injection, schedule: Q04DX002 (ip), vehicle: saline with Tween-80) 116 % of control; (dose: 400.0 mg/kg/injection, schedule: Q04DX002 (ip), vehicle: saline with Tween-80) 90 % of control.
Regarding `O=C(C1=C(Nc2ccccc2)CCC1)c1ccccc1`, the T/C by setting is: (dose: 50.0 mg/kg/injection, schedule: Q01DX009 (ip), vehicle: saline) 116 % of control; (dose: 100.0 mg/kg/injection, schedule: Q01DX009 (ip), vehicle: saline) 106 % of control; (dose: 200.0 mg/kg/injection, schedule: Q01DX009 (ip), vehicle: saline) 106 % of control.
For `Cc1cccc(Nc2ccccc2C(=O)O)c1C`, the T/C reads like this: (dose: 6.25 mg/kg/injection, schedule: Q01DX009 (ip), vehicle: saline with Tween-80) 103 % of control; (dose: 12.5 mg/kg/injection, schedule: Q01DX009 (ip), vehicle: saline with Tween-80) 98 % of control; (dose: 25.0 mg/kg/injection, schedule: Q01DX009 (ip), vehicle: saline with Tween-80) 111 % of control; (dose: 50.0 mg/kg/injection, schedule: Q01DX009 (ip), vehicle: saline with Tween-80) 101 % of control.
Regarding `CCOc1ccccc1C1N(C)CCCN1C`, the T/C (dose: 6.25 mg/kg/injection, schedule: Q01DX009 (ip), vehicle: saline sonified) is 90 % of control; the T/C (dose: 12.5 mg/kg/injection, schedule: Q01DX009 (ip), vehicle: saline sonified) was 95 % of control; the T/C (dose: 25.0 mg/kg/injection, schedule: Q01DX009 (ip), vehicle: saline sonified) was 86 % of control.
Regarding `COc1cc(C2(O)c3cc4c(cc3CCN2C)OCO4)cc(OC)c1OC` (stereo unspecified), the T/C under setting [2] was 97 % of control, the T/C under setting [3] was 96 % of control and the T/C under setting [4] was 90 % of control.
Regarding `COc1cc2c(cc1OC)C1CC(=O)C(Cc3ccccc3)CN1CC2` (stereo unspecified), the T/C was 101 % of control (dose: 50.0 mg/kg/injection, schedule: Q01DX009 (ip), vehicle: Klucel (hydroxypropylcellulose) (HPC)); 87 % of control and 95 % of control (dose: 100.0 mg/kg/injection, schedule: Q01DX009 (ip), vehicle: Klucel (hydroxypropylcellulose) (HPC)); 95 % of control and 104 % of control (dose: 200.0 mg/kg/injection, schedule: Q01DX009 (ip), vehicle: Klucel (hydroxypropylcellulose) (HPC)).
In the case of `COC(=O)c1cc(OCC#CC#CCOc2ccc(O)c(C(=O)OC)c2)ccc1O`, the T/C runs as follows: under setting [5], 95 % of control; under setting [6], 89 % of control; under setting [7], 86 % of control.
For the compound `COc1ccc2cc3[n+](cc2c1OC)CCc1cc2c(cc1-3)OCO2`, the T/C (dose: 1.25 mg/kg/injection, schedule: Q01DX009 (ip), vehicle: water) is 99 % of control and 110 % of control; the T/C (dose: 2.5 mg/kg/injection, schedule: Q01DX009 (ip), vehicle: water) was 105 % of control; the T/C (dose: 3.13 mg/kg/injection, schedule: Q01DX009 (ip), vehicle: Klucel (hydroxypropylcellulose) (HPC)) is 95 % of control; the T/C (dose: 5.0 mg/kg/injection, schedule: Q01DX009 (ip), vehicle: water) was 110 % of control and 119 % of control; the T/C (dose: 6.25 mg/kg/injection, schedule: Q01DX009 (ip), vehicle: Klucel (hydroxypropylcellulose) (HPC)) was 107 % of control; the T/C (dose: 10.0 mg/kg/injection, schedule: Q01DX009 (ip), vehicle: water) is 110 % of control. In addition, the T/C (dose: 12.5 mg/kg/injection, schedule: Q01DX009 (ip), vehicle: Klucel (hydroxypropylcellulose) (HPC)) is 109 % of control and the T/C (dose: 20.0 mg/kg/injection, schedule: Q01DX009 (ip), vehicle: water) was 119 % of control.
For `O=C(NC(=S)Nc1ccc(CCO)cc1)c1cccc(Br)c1`, the T/C runs as follows: (dose: 3.75 mg/kg/injection, schedule: Q01DX005 (ip), vehicle: saline with Tween-80) 91 % of control; (dose: 7.5 mg/kg/injection, schedule: Q01DX005 (ip), vehicle: saline with Tween-80) 90 % of control; (dose: 15.0 mg/kg/injection, schedule: Q01DX005 (ip), vehicle: saline with Tween-80) 87 % of control; under setting [7], 92 % of control.
`O=C(O)c1cc(N=Nc2ccc(-c3ccc(N=Nc4c(S(=O)(=O)O)cc5cc(Nc6ccccc6)ccc5c4O)cc3)cc2)ccc1O`: the T/C is 107 % of control (dose: 50.0 mg/kg/injection, schedule: Q01DX005 (ip), vehicle: saline); 114 % of control (dose: 100.0 mg/kg/injection, schedule: Q01DX005 (ip), vehicle: saline); 112 % of control (dose: 200.0 mg/kg/injection, schedule: Q01DX005 (ip), vehicle: saline).
For the compound `COc1ccc2c(C)cc(N/N=C/c3cccc(C)n3)nc2c1`, the T/C runs as follows: under setting [2], 98 % of control and 104 % of control and 93 % of control; under setting [3], 105 % of control and 109 % of control and 110 % of control; under setting [4], 104 % of control and 116 % of control and 124 % of control.
Turning to `ClCC[N-]CC[N-]CCCl.ClCC[N-]CC[N-]CCCl.[O-][Cl+3]([O-])([O-])O.[Zn+2]`, the T/C (dose: 5.0 mg/kg/injection, schedule: Q04DX003 (ip), vehicle: saline with Tween-80) is 102 % of control and the T/C (dose: 10.0 mg/kg/injection, schedule: Q04DX003 (ip), vehicle: saline with Tween-80) is 111 % of control.
As for `C=CC[C@]1(S(=O)(=O)c2ccccc2)[C@@H](N(C)C)C[C@@H](O[Si](C)(C)C(C)(C)C)[C@@H]1/C=C/[C@H](CCCCC)O[Si](C)(C)C(C)(C)C`, the T/C reads like this: (dose: 12.5 mg/kg/injection, schedule: Q01DX005 (ip), vehicle: Klucel (hydroxypropylcellulose) (HPC)) 107 % of control; (dose: 25.0 mg/kg/injection, schedule: Q01DX005 (ip), vehicle: Klucel (hydroxypropylcellulose) (HPC)) 111 % of control; under setting [2], 107 % of control.
